Activity calls are given as the source filed them. The rule behind the calls is not given here.
Assays:
MCF7 [1] = test: Antiproliferative activity against human MCF7 cells assessed as cell growth inhibition after 72 hrs by MTT assay; type: functional; conditions: MCF7, 72 h
HCT-116 [2] = test: Antiproliferative activity against human HCT116 cells assessed as cell growth inhibition after 72 hrs by MTT assay; type: functional; conditions: HCT-116, 72 h
MCF7 [3] = test: Antiproliferative activity against ER positive human MCF7 cells assessed as cell growth inhibition after 72 hrs by MTT assay; type: functional; conditions: MCF7, 72 h
MDA-MB-231 = test: Antiproliferative activity against ER negative human MDA-MB-231 cells assessed as cell growth inhibition after 72 hrs by MTT assay; type: functional; conditions: MDA-MB-231, 72 h
DU-145 [4] = test: Antiproliferative activity against AR negative human DU145 cells assessed as cell growth inhibition after 72 hrs by MTT assay; type: functional; conditions: DU-145, 72 h
A2780 [5] = test: Cell cycle arrest in human A2780 cells assessed as accumulation at subG1 phase at 0.06 uM after 24 hrs by flow cytometric analysis (reference value: 0.62%); type: functional
A2780 [6] = test: Cell cycle arrest in human A2780 cells assessed as accumulation at G2/M phase at 0.06 uM after 24 hrs by flow cytometric analysis (reference value: 21.81%); type: functional
A2780 [7] = test: Cell cycle arrest in human A2780 cells assessed as accumulation at G1 phase at […] after 24 hrs by flow cytometric analysis (reference value: 54.89%); type: functional
A2780 [8] = test: Cell cycle arrest in human A2780 cells assessed as accumulation at G1 phase at 1 uM after 24 hrs by flow cytometric analysis (reference value: 54.89%); type: functional
WI-38 [9] = test: Cell cycle arrest in human WI38 cells assessed as accumulation at S phase at 0.06 uM after 24 hrs by flow cytometric analysis (reference value: 16.25%); type: functional
WI-38 [10] = test: Cell cycle arrest in human WI38 cells assessed as accumulation at S phase at […] after 24 hrs by flow cytometric analysis (reference value: 16.25%); type: functional
WI-38 [11] = test: Cell cycle arrest in human WI38 cells assessed as accumulation at subG1 phase at 1 uM after 24 hrs by flow cytometric analysis (reference value: 10.53%); type: functional
WI-38 [12] = test: Cell cycle arrest in human WI38 cells assessed as accumulation at G1 phase at 1 uM after 24 hrs by flow cytometric analysis (reference value: 55.89%); type: functional
WI-38 [13] = test: Cell cycle arrest in human WI38 cells assessed as accumulation at S phase at 1 uM after 24 hrs by flow cytometric analysis (reference value: 16.25%); type: functional
WI-38 [14] = test: Cell cycle arrest in human WI38 cells assessed as accumulation at G2/M phase at 1 uM after 24 hrs by flow cytometric analysis (reference value: 17.36%); type: functional
A2780 [15] = test: Induction of apoptosis in human A2780 cells assessed as necrotic cells at 0.06 uM after 48 hrs by annexin V/PI double staining (reference value: 0.53%); type: functional
A2780 [16] = test: Induction of apoptosis in human A2780 cells assessed as necrotic cells at 1 uM after 48 hrs by annexin V/PI double staining (reference value: 0.53%); type: functional
WI-38 [17] = test: Induction of apoptosis in human WI38 cells assessed as viable cells at […] after 48 hrs by annexin V/PI double staining (reference value: 80.59%); type: functional; conditions: WI-38, 48 h, read-out: Activity
WI-38 [18] = test: Induction of apoptosis in human WI38 cells assessed as late-stage apoptotic cells at 1 uM after 48 hrs by annexin V/PI double staining (reference value: 16.26%); type: functional
WI-38 [19] = test: Induction of apoptosis in human WI38 cells assessed as viable cells at 1 uM after 48 hrs by annexin V/PI double staining (reference value: 80.59%); type: functional; conditions: WI-38, 48 h, read-out: Activity
[20] = Octanol-buffer partition coefficient, log D of the compound at pH 7.4 by shake-flask method; type: physicochemical
[21] = Aqueous solubility of the compound by turbidimetric solubility assay; type: physicochemical; conditions: buffer
[22] = Apparent permeability across apical to basolateral side in human Caco2 cells; type: ADME, cell-based; conditions: Caco-2
[23] = Apparent permeability across basolateral to apical side in human Caco2 cells; type: ADME, cell-based; conditions: Caco-2
[24] = Half life in rat liver microsomes; type: ADME
[25] = molecular target: Voltage-gated inwardly rectifying potassium channel KCNH2 (Homo sapiens, UniProt Q12809); test: Inhibition of human ERG expressed in CHO cells
Chain of Voltage-gated inwardly rectifying potassium channel KCNH2 (Q12809 whole entry): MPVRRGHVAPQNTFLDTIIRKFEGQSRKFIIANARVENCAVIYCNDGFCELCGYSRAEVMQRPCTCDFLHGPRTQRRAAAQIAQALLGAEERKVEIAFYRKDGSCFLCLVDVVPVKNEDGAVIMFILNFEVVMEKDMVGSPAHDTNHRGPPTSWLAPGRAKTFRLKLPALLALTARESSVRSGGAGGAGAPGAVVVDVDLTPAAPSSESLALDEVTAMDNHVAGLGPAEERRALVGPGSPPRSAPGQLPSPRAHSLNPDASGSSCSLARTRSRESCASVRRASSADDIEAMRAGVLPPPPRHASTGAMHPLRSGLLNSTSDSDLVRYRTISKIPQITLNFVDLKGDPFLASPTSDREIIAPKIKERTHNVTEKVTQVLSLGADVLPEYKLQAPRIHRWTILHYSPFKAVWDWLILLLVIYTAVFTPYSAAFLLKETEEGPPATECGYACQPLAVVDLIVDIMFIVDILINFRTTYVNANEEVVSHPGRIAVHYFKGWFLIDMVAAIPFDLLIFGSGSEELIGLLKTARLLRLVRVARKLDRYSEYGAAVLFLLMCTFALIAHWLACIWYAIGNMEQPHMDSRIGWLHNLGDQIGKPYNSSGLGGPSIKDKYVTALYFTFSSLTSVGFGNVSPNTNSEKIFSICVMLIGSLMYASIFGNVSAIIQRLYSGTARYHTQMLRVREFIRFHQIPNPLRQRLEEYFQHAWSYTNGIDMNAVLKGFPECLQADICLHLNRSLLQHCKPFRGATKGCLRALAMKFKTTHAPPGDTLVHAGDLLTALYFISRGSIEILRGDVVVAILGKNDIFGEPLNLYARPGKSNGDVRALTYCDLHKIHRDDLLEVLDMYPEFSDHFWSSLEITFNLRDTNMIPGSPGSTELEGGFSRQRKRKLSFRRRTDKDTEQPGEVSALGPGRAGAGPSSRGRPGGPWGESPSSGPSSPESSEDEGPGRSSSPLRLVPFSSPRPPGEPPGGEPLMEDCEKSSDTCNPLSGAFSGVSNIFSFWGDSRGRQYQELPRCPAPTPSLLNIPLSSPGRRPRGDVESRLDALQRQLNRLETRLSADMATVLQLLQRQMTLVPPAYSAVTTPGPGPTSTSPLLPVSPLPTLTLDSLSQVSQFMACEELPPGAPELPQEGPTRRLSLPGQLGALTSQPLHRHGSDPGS

[26] = Cmax in mouse at 40 mg/kg, po after 24 hrs; type: ADME, organism-based; set-up: dose 40 mg/kg, route oral; conditions: in vivo
[27] = AUC (0 to t) in mouse at 40 mg/kg, po after 24 hrs; type: ADME, organism-based; set-up: time < 24 hr, dose 40 mg/kg, route oral; conditions: plasma
[28] = Elimination half life in mouse at 40 mg/kg, po after 24 hrs; type: ADME, organism-based; set-up: dose 40 mg/kg, route oral; conditions: in vivo, read-out: beta t1/2 (converted)
[29] = Oral bioavailability (0 to t) in mouse at 40 mg/kg after 24 hrs; type: ADME, organism-based; conditions: in vivo
[30] = Oral bioavailability (0 to infinity) in mouse at 40 mg/kg after 24 hrs; type: ADME, organism-based; conditions: in vivo
A2780 [31] = test: Antitumor activity against human A2780 cells xenografted in mouse assessed as increase in life span at 50 mg/kg, po administered every second day for 2 weeks; type: functional
PANC-1 [32] = test: Selectivity ratio of IC50 for human WI38 cells to IC50 for human PANC1 cells; type: functional
DU-145 [33] = test: Selectivity ratio of IC50 for human WI38 cells to IC50 for AR negative human DU145 cells; type: functional
LNCaP [34] = test: Selectivity ratio of IC50 for human WI38 cells to IC50 for AR positive human LNCAP cells; type: functional
PANC-1 [35] = test: Ratio of ON01910 IC50 to compound IC50 for human PANC1 cells; type: functional
LNCaP [36] = test: Ratio of ON01910 IC50 to compound IC50 for AR positive human LNCAP cells; type: functional
HCT-116 [37] = test: Ratio of ON01910 IC50 to compound IC50 for human HCT116 cells; type: functional
A2780 [38] = test: Ratio of ON01910 IC50 to compound IC50 for human A2780 cells; type: functional
WI-38 [39] = test: Induction of apoptosis in human WI38 cells assessed as caspase-3/7 activation up to 1 uM after 24 hrs by using Apo-ONE homogeneous caspase-3/7 kit; type: functional, cell-based
A2780 [40] = test: Reduction in CDC25C level in human A2780 cells at 0.03 uM after 24 hrs by Western blot analysis; type: functional, cell-based
A2780 [41] = test: Reduction in Mcl1 level in human A2780 cells at 0.03 uM after 24 hrs by Western blot analysis; type: functional, cell-based
[42] = Dissociation constant, pKa of the compound by pH-metric method; type: physicochemical
[43] = Cmax in mouse at 10 mg/kg, po after 24 hrs; type: ADME, organism-based; set-up: dose 10 mg/kg, route oral; conditions: in vivo
[44] = Elimination half life in mouse at 10 mg/kg, po after 24 hrs; type: ADME, organism-based; set-up: dose 10 mg/kg, route oral; conditions: in vivo, read-out: beta t1/2 (converted)
A2780 [45] = test: Reduction in CDC25C level in human A2780 cells at 1 uM after 24 hrs by Western blot analysis; type: functional, cell-based
A2780 [46] = test: Reduction in Mcl1 level in human A2780 cells at 1 uM after 24 hrs by Western blot analysis; type: functional, cell-based

With COc1cc(OC)c(/C=C/S(=O)(=O)Cc2ccc(OC)c(NCC(=O)O)c2)c(OC)c1 [RIGOSERTIB] the GI50 (MCF7 [1]) was 50 nM, the GI50 (HCT-116 [2]) was 70 nM and the GI50 (MCF7 [3]) was 50 nM. For the same molecule, the GI50 (MDA-MB-231) was 57 nM, the GI50 (DU-145 [4]) was 75 nM and the Activity (A2780 [5]) was 0.63%. The Activity (A2780 [6]) was 19.63%, the Activity (A2780 [7]) was 37.71% and the Activity (A2780 [8]) was 5.37%. The Activity (WI-38 [9]) was 11.86%, the Activity (WI-38 [10]) was 9.32% and the Activity (WI-38 [11]) was 6.57%. The Activity (WI-38 [12]) was 53.8%, the Activity (WI-38 [13]) was 10.36% and the Activity (WI-38 [14]) was 19.27%. It also gave an Activity (A2780 [15]) of 0.34%, an Activity (A2780 [16]) of 1.19% and a viability at […] (WI-38 [17]) of 73.2%. The Activity (WI-38 [18]) was 22.43% and the viability at 1 µM (WI-38 [19]) was 65.7%.

For COc1cc(OC)c(/C=C/S(=O)(=O)Cc2ccc(OC)c(N)n2)c(OC)c1, the logD [20] was 2.41, the solubility kinetic [21] was greater than 100 µM and the Papp A→B [22] was 33.1 ×10⁻⁶ cm/s. It also gave a Papp B→A [23] of 26.2 ×10⁻⁶ cm/s, a half-life [24] of 0.25 h and an IC50 [25] greater than 25000 nM. The Cmax [26] was 2500 nM, the AUC(0-t) at 24 h [27] was 23.1 µM·h and the half-life [28] was 77.1 h. For the same molecule, the bioavailability [29] was 44%, the bioavailability [30] was 68% and the Activity (A2780 [31]) was 80%. For the same molecule, the “Ratio IC50” value (PANC-1 [32]) was greater than 1400, the “Ratio IC50” value (DU-145 [33]) was greater than 1400 and the “Ratio IC50” value (LNCaP [34]) was greater than 1400. The “Ratio IC50” value (PANC-1 [35]) was 10, the “Ratio IC50” value (LNCaP [36]) was 10 and the “Ratio IC50” value (HCT-116 [37]) was 10. The “Ratio IC50” value (A2780 [38]) was 10, the GI50 (MCF7 [1]) was 6 nM and the GI50 (HCT-116 [2]) was 8 nM. The GI50 (MCF7 [3]) was 6 nM, the GI50 (MDA-MB-231) was 7 nM and the GI50 (DU-145 [4]) was 6 nM. For the same molecule, the Activity (A2780 [5]) was 10.06%, the Activity (A2780 [6]) was 59.72% and the Activity (A2780 [7]) was 14.1%. For the same molecule, the Activity (A2780 [8]) was 13.02%, the Activity (WI-38 [9]) was 9.81% and the Activity (WI-38 [10]) was 9.5%. It also gave an Activity (WI-38 [11]) of 8.09%, an Activity (WI-38 [12]) of 60.09% and an Activity (WI-38 [13]) of 6.87%. The Activity (WI-38 [14]) was 24.94%, the Activity (A2780 [15]) was 2.88% and the Activity (A2780 [16]) was 1.11%. The viability at […] (WI-38 [17]) was 84.4%, the Activity (WI-38 [18]) was 15.52% and the viability at 1 µM (WI-38 [19]) was 79.8%. For the same molecule, the Activity (WI-38 [39]) was “inactive”, the inhibition (A2780 [40]) was “Active” and the inhibition (A2780 [41]) was “Active”. The pKa [42] was 4.67.

Molecule COc1cc(OC)c(/C=C/S(=O)(=O)Cc2ccc(OC)c(NS(C)(=O)=O)n2)c(OC)c1 has a logD [20] of 1.53, a solubility kinetic [21] greater than 100 µM and a Papp A→B [22] of 3.15 ×10⁻⁶ cm/s. It also gave a Papp B→A [23] of 53.4 ×10⁻⁶ cm/s, a half-life [24] of 1.88 h and an IC50 [25] greater than 25000 nM. The Cmax [43] was 2100 nM, the half-life [44] was 4.6 h and the GI50 (MCF7 [1]) was 468 nM. The GI50 (HCT-116 [2]) was 610 nM, the GI50 (MCF7 [3]) was 468 nM and the GI50 (MDA-MB-231) was 641 nM. It also gave a GI50 (DU-145 [4]) of 484 nM, an Activity (A2780 [5]) of 0.95% and an Activity (A2780 [6]) of 21.08%. It also gave an Activity (A2780 [7]) of 57.35%, an Activity (A2780 [8]) of 14.2% and an Activity (WI-38 [9]) of 14.51%. For the same molecule, the Activity (WI-38 [10]) was 13.26%, the Activity (WI-38 [11]) was 5.66% and the Activity (WI-38 [12]) was 58.17%. The Activity (WI-38 [13]) was 9.93%, the Activity (WI-38 [14]) was 26.14% and the Activity (A2780 [15]) was 0.55%. It also gave an Activity (A2780 [16]) of 1.31%, a viability at […] (WI-38 [17]) of 84.4% and an Activity (WI-38 [18]) of 21.15%. The viability at 1 µM (WI-38 [19]) was 67%, the Activity (WI-38 [39]) was “inactive” and the inhibition (A2780 [45]) was “Active”. For the same molecule, the inhibition (A2780 [46]) was “Active” and the pKa [42] was 7.28.
